*1 amine or outer side, *2 acyl side, *3 side chain or, on linkers, in order; H or OH if unused. Where a SMILES comes first, the peptide text is derived from it. Bridges are numbered along the chain shown (N, C = ends). [ ]: non-standard residue; d: D form. The star is where a group is joined. hPhe(3-Cl-4-CF3) = N[C@@H](CCc1ccc(C(F)(F)F)c(Cl)c1)C(=O)O; X31 = COCCCN([C@@H](Cc1ccc(C(F)(F)F)cc1)C(=O)[*:2])[*:1]; X32 = COCCN([C@@H](Cc1ccc(C(F)(F)F)cc1)C(=O)[*:2])[*:1]; X10 = C=CCN([C@@H](Cc1ccc(C)cc1)C(=O)[*:2])[*:1]; X16 = CCCN([C@@H](Cc1ccc(OC)cc1)C(=O)[*:2])[*:1]; NPrPhe(4-Me) = CCCN[C@@H](Cc1ccc(C)cc1)C(=O)O; NMeGly(cPent) = CN[C@H](C(=O)O)C1CCCC1; Aze(3S-Me) = C[C@H]1CN[C@@H]1C(=O)O; NMeAllylGly = C=CC[C@H](NC)C(=O)O; NMeD = CN[C@@H](CC(=O)O)C(=O)O; NMeL = CN[C@@H](CC(C)C)C(=O)O; Morpholide = C1CN(*)CCO1; NMeA = CN[C@@H](C)C(=O)O; Ac5c = NC1(C(=O)O)CCCC1; Aze = O=C(O)[C@@H]1CCN1; Sar = CNCC(=O)O
Experiments:
[1] = target: GDP-bound KRAS wild-type protein (Homo sapiens, UniProt P01116); assay: Binding to KRAS by surface plasmon resonance (SPR), Single Cycle Kinetics; conditions: SPR Single Cycle Kinetics, GDP-bound KRAS wild-type protein, 1:1 binding model; read-out: KRAS KD
[2] = target: GDP-bound NRAS wild-type protein (Homo sapiens, UniProt P01111); assay: Binding to NRAS by surface plasmon resonance (SPR), Single Cycle Kinetics; conditions: SPR, GDP-bound NRAS wild-type protein vs GDP-bound KRAS wild-type protein
[3] = target: GDP-bound HRAS wild-type protein (Homo sapiens, UniProt P01112); assay: Binding to HRAS by surface plasmon resonance (SPR), Single Cycle Kinetics; conditions: SPR, GDP-bound HRAS wild-type protein vs GDP-bound KRAS wild-type protein
GDP-bound HRAS wild-type protein, sequence (P01112 whole entry): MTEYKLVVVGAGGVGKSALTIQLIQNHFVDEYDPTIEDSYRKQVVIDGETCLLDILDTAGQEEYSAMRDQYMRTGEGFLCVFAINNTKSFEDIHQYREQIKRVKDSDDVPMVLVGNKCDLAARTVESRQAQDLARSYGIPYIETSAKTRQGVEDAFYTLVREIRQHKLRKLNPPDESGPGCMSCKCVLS

GDP-bound KRAS wild-type protein, sequence (P01116 whole entry): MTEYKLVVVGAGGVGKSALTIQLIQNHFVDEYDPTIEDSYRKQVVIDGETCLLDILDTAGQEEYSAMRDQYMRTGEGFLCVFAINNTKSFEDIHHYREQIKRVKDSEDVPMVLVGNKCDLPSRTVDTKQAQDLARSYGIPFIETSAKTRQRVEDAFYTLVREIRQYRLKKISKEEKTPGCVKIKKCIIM
GDP-bound NRAS wild-type protein, sequence (P01111 whole entry): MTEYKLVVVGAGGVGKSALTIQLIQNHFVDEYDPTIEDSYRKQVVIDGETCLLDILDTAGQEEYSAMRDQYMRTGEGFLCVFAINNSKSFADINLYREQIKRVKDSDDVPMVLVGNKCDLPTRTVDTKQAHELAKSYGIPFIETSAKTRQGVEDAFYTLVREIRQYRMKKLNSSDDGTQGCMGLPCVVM

CC[C@H](C)[C@@H]1NC(=O)[C@H](CC(C)C)N(C)C(=O)C[C@@H](C(=O)N2CCOCC2)N(C)C(=O)[C@H](C2CCCC2)N(C)C(=O)C2(CCCC2)NC(=O)[C@@H]2CCCN2C(=O)[C@H](CCc2ccc(C(F)(F)F)c(Cl)c2)NC(=O)CN(C)C(=O)[C@H](Cc2ccc(C(F)(F)F)cc2)N(CCOC)C(=O)CN(C)C(=O)CN(C)C1=O [PP0132] ([NMeL]I[Sar][Sar][X32][Sar][hPhe(3-Cl-4-CF3)]P[Ac5c][NMeGly(cPent)][NMeD]-Morpholide; lactam N-11)
Kd [1]: 0.2 nM
NRAS/KRAS (ratio of KD value for NRAS to KD value for KRAS) [2]: C (A compound having a KD ratio of 0.1 or more and less than 3 is denoted as C)
HRAS/KRAS (ratio of KD value for HRAS to KD value for KRAS) [3]: C (A compound having a KD ratio of 0.1 or more and less than 3 is denoted as C)

CC[C@H](C)[C@@H]1NC(=O)[C@H](CC(C)C)N(C)C(=O)C[C@@H](C(=O)N2CCOCC2)N(C)C(=O)[C@H](C2CCCC2)N(C)C(=O)C2(CCCC2)NC(=O)[C@@H]2CCCN2C(=O)[C@H](CCc2ccc(C(F)(F)F)c(Cl)c2)NC(=O)CN(C)C(=O)[C@H](Cc2ccc(C(F)(F)F)cc2)N(CCCOC)C(=O)CN(C)C(=O)CN(C)C1=O [PP0133] ([NMeL]I[Sar][Sar][X31][Sar][hPhe(3-Cl-4-CF3)]P[Ac5c][NMeGly(cPent)][NMeD]-Morpholide; lactam N-11)
Kd [1]: 0.08 nM
NRAS/KRAS (ratio of KD value for NRAS to KD value for KRAS) [2]: B (a compound having 3 or more and less than 10 is denoted as B)
HRAS/KRAS (ratio of KD value for HRAS to KD value for KRAS) [3]: C (A compound having a KD ratio of 0.1 or more and less than 3 is denoted as C)

CCCN1C(=O)[C@@H]2CCN2C(=O)[C@H](C)N(C)C(=O)[C@H]([C@@H](C)CC)NC(=O)[C@H](CC(C)C)N(C)C(=O)C[C@@H](C(=O)N2CCOCC2)N(C)C(=O)[C@H](C2CCCC2)N(C)C(=O)C2(CCCC2)NC(=O)[C@@H]2CCCN2C(=O)[C@H](CCc2ccc(C(F)(F)F)c(Cl)c2)NC(=O)CN(C)C(=O)[C@@H]1Cc1ccc(OC)cc1 [PP0134] ([NMeL]I[NMeA][Aze][X16][Sar][hPhe(3-Cl-4-CF3)]P[Ac5c][NMeGly(cPent)][NMeD]-Morpholide; lactam N-11)
Kd [1]: 0.66 nM
NRAS/KRAS (ratio of KD value for NRAS to KD value for KRAS) [2]: C (A compound having a KD ratio of 0.1 or more and less than 3 is denoted as C)
HRAS/KRAS (ratio of KD value for HRAS to KD value for KRAS) [3]: B (a compound having 3 or more and less than 10 is denoted as B)

CCCN1C(=O)CN(C)C(=O)CN(C)C(=O)[C@H]([C@@H](C)CC)NC(=O)[C@H](CC(C)C)N(C)C(=O)C[C@@H](C(=O)N2CCOCC2)N(C)C(=O)[C@H](C2CCCC2)N(C)C(=O)C2(CCCC2)NC(=O)[C@@H]2CCCN2C(=O)[C@H](CCc2ccc(C(F)(F)F)c(Cl)c2)NC(=O)CN(C)C(=O)[C@@H]1Cc1ccc(OC)cc1 [PP0135] ([NMeL]I[Sar][Sar][X16][Sar][hPhe(3-Cl-4-CF3)]P[Ac5c][NMeGly(cPent)][NMeD]-Morpholide; lactam N-11)
Kd [1]: 0.75 nM
NRAS/KRAS (ratio of KD value for NRAS to KD value for KRAS) [2]: B (a compound having 3 or more and less than 10 is denoted as B)
HRAS/KRAS (ratio of KD value for HRAS to KD value for KRAS) [3]: C (A compound having a KD ratio of 0.1 or more and less than 3 is denoted as C)

CCCN1C(=O)[C@@H]2[C@@H](C)CN2C(=O)[C@H](C)N(C)C(=O)[C@H]([C@@H](C)CC)NC(=O)[C@H](CC(C)C)N(C)C(=O)C[C@@H](C(=O)N2CCOCC2)N(C)C(=O)[C@H](C2CCCC2)N(C)C(=O)C2(CCCC2)NC(=O)[C@@H]2CCCN2C(=O)[C@H](CCc2ccc(C(F)(F)F)c(Cl)c2)NC(=O)CN(C)C(=O)[C@@H]1Cc1ccc(C)cc1 [PP0138] ([NMeL]I[NMeA][Aze(3S-Me)][NPrPhe(4-Me)][Sar][hPhe(3-Cl-4-CF3)]P[Ac5c][NMeGly(cPent)][NMeD]-Morpholide; lactam N-11)
Kd [1]: 0.77 nM
NRAS/KRAS (ratio of KD value for NRAS to KD value for KRAS) [2]: C (A compound having a KD ratio of 0.1 or more and less than 3 is denoted as C)
HRAS/KRAS (ratio of KD value for HRAS to KD value for KRAS) [3]: C (A compound having a KD ratio of 0.1 or more and less than 3 is denoted as C)

C=CC[C@H]1C(=O)N(CC=C)[C@@H](Cc2ccc(C)cc2)C(=O)N(C)CC(=O)N[C@@H](CCc2ccc(C(F)(F)F)c(Cl)c2)C(=O)N2CCC[C@H]2C(=O)NC2(CCCC2)C(=O)N(C)[C@@H](C2CCCC2)C(=O)N(C)[C@H](C(=O)N2CCOCC2)CC(=O)N(C)[C@@H](CC(C)C)C(=O)N[C@@H]([C@@H](C)CC)C(=O)N(C)CC(=O)N1C [PP0139] ([NMeL]I[Sar][NMeAllylGly][X10][Sar][hPhe(3-Cl-4-CF3)]P[Ac5c][NMeGly(cPent)][NMeD]-Morpholide; lactam N-11)
Kd [1]: 230 nM
NRAS/KRAS (ratio of KD value for NRAS to KD value for KRAS) [2]: C (A compound having a KD ratio of 0.1 or more and less than 3 is denoted as C)
HRAS/KRAS (ratio of KD value for HRAS to KD value for KRAS) [3]: C (A compound having a KD ratio of 0.1 or more and less than 3 is denoted as C)

— patent US20240158446A1, “CYCLIC COMPOUND HAVING SELECTIVE INHIBITORY ACTION ON KRAS OVER HRAS AND NRAS” (CHUGAI SEIYAKU KABUSHIKI KAISHA, priority 2021, published 2024)
